Source: patent publication US5955632A, “Seco-d steroids active on the cardiovascular system, processes for their preparation and pharmaceutical compositions containing them” (Sigma-Tau Industrie Farmaceutiche Riunite S.p.A., priority 1996, dated 1999)
Where a name gives a salt, the structure may show the parent alone.

Experiments:
[1] = test system: spontaneous hypertensive rats (MHS); assay: effect of 5 week-treatment in spontaneous hypertensive rats (MHS) on the development of hypertension (tail cuff SBP and HR); assay type: in vivo, rat; details: 1 mg/Kg/os daily in Methocel 0.5% w/v, 5 weeks; for SBP (systolic blood pressure): controls (Methocel) 172 +/- 3.5; for HR (heart rate): controls (Methocel) 380 +/- 9.0
Experimental: To test the antihypertensive activity the following test was used:
systolic blood pressure (SBP) and heart rate (HR) were measured, by the tail cuff method, in young prehypertensive male rats (MHS or SHR) strains before the development of hypertension (4 weeks of age) for recording the basal values of SBP. Groups of 7 rats were formed and subdivided in control and treated groups. The compound, suspended in Methocel 0.5% (w/v), was orally given daily for at least 5 weeks to the treated groups. The control group received only Methocel. SBP and HR were measured weekly 6 and 24 hrs after treatment. After 5 weeks of treatment, when hypertension was fully developed in the control group (9 weeks of age), washout was started for at least one week, to verify whether the treatment mantained blood pressure low or reestablished the basal values.
(Takeda K. et al., Japan J. Pharmacol., 1979, 29,171; Takeda K. et al. Japan J. Pharmacol., 1982, 32, 283; Richer C. et al. Eur. J. Pharmacol, 1978, 47,393).

Na^+,K^+ -ATPase [2] = molecular target: T1, Na^+,K^+ -ATPase (Canis lupus familiaris, UniProt P50997); assay: biochemical
T1 construct: from tissue; the cited Jorgensen 1974 method uses outer medulla of mammalian kidney (own knowledge)
Excerpt: (§1) To test the affinity for the receptor site of the Na^+,K^+ -ATPase and the agonist or antagonist activity on the enzyme, the following tests were used:
b) inhibition of the activity of the purified Na^+,K^+ -ATPase measured as % of hydrolysis of ^32 P-ATP in presence and in absence of the tested compound (Doucet A. et al., Am. J. Physiol., 1986, 251, F851).

Na^+,K^+ -ATPase [3] = molecular target: T1, Na^+,K^+ -ATPase; assay: displacement of the specific ^3H-ouabain binding from the purified Na^+,K^+-ATPase receptor
Excerpt: as §1
a) displacement of the specific ^3 H-ouabain binding from the Na^+,K^+ -ATPase receptor purified according to Jorghensen (Jorghensen P., BBA, 1974, 356, 36) and Erdmann (Erdmann E. et al., Arzneim. Forsh, 1984, 34, 1314);

[4] = purified Na^+,K^+-ATPase, ^32P-ATP hydrolysis, read-out: Inhibitory Activity log IC50 (converted)
[5] = ^3H-ouabain displacement, purified Na^+,K^+-ATPase, read-out: Binding ^3 H-Ouab. Displacement log IC50 (converted)

IC50 (Na^+,K^+ -ATPase [2]; [4]) [nM] | IC50 (Na^+,K^+ -ATPase [3]; [5]) [nM] | Compound | SBP (systolic blood pressure) [1] | HR (heart rate) [1] | IC50 (Na^+,K^+ -ATPase [2]) [nM] | IC50 (Na^+,K^+ -ATPase [3]) [nM]
 |  | C[C@@H](C/C=N/OCCN)[C@@]1(C)CC[C@H]2[C@@H](CC[C@@H]3C[C@@H](O)CC[C@@]32C)C1=O [Comp. I-ae, E-17β-Methyl-15-[(2-aminoethoxy)imino]-5β-14,15-seco-3β-hydroxy-androstan-14-one oxalate] | 149 +/- 3.7 mm Hg | 370 +/- 11.2 beats/min. |  | 
 |  | C[C@@H](C/C=N/OCCN(C)C)[C@@]1(C)CC[C@H]2[C@@H](CC[C@@H]3C[C@@H](O)CC[C@@]32C)C1=O [Comp. I-ag, E-17β-Methyl-15-[(2-dimethylaminoethoxy)imino]-5β-14,15-seco-3β-hydroxy-androstan-14-one oxalate] | 154 +/- 4.8 mm Hg | 390 +/- 5.9 beats/min. |  | 
100000 | 3980 | CC[C@H](/C=N/OCCN(C)C)[C@@]1(C)CC[C@H]2[C@@H](CC[C@@H]3C[C@@H](O)CC[C@@]32C)C1=O [Comp. I-ai, E-17β-2-[(2-Dimethylaminoethoxy)iminomethyl]-5β-14,15-seco-3β-hydroxy-androstan-14-one oxalate] |  |  |  | 
 |  | CC[C@@H](C/C=N/OCCN)[C@@]1(C)CC[C@H]2[C@@H](CC[C@@H]3C[C@@H](O)CC[C@@]32C)C1=O [Comp. I-ao, E-17α-2-[(2-Aminoethoxy)iminomethyl]-5β-14,15-seco-3β-hydroxy-androstan-14-one oxalate] |  |  | 200 | 39.8
 |  | CC[C@H](C/C=N/OCCN(C)C)[C@@]1(C)CC[C@H]2[C@@H](CC[C@@H]3C[C@@H](O)CC[C@@]32C)C1=O [Comp. I-aq, E-17β-2-[(2-Dimethylaminoethoxy)iminomethyl]-5β-14,15-seco-3β-hydroxy-androstan-14-one oxalate] |  |  | 12600 | 794
 |  | CC[C@@H](C/C=N/OCCN(C)C)[C@@]1(C)CC[C@H]2[C@@H](CC[C@@H]3C[C@@H](O)CC[C@@]32C)C1=O [Comp. I-as, E-17α-2-[(2-Dimethylaminoethoxy)iminomethyl]-5β-14,15-seco-3β-hydroxy-androstan-14-one oxalate] |  |  | 1260 | 100
3160 | 398 | CC[C@@H](C/C=N/NC(=N)N)[C@@]1(C)CC[C@H]2[C@@H](CC[C@@H]3C[C@@H](O)CC[C@@]32C)C1=O [Comp. I-ay, E-17α-2-(2-Guanidinoiminoethyl)-5β-14,15-seco-3β-hydroxy-androstan-14-one oxalate] |  |  |  | 
6310 | 316 | CC[C@@H](C/C=C/C=N/OCCN(C)C)[C@@]1(C)CC[C@H]2[C@@H](CC[C@@H]3C[C@@H](O)CC[C@@]32C)C1=O [Comp. I-be, E,E-17α-4-[(2-Dimethylaminoethoxyimino)-2-butenyl]-5β-14,15-seco-3β-hydroxy-androstan-14-one oxalate] | 150 +/- 5.1 mm Hg | 384 +/- 7.9 beats/min. |  | 
 |  | CC[C@@H](C/C=N/OCCN)[C@@]1(C)CC[C@H]2[C@@H](CC[C@H]3C[C@@H](O)CC[C@@]32C)C1=O [Comp. I-bg, E-17α-2-[(2-Aminoethoxy)iminomethyl]-14,15-seco-3β-hydroxy-androstan-14-one oxalate] | 151 +/- 5.2 mm Hg | 388 +/- 9.0 beats/min. | 1000 | 158
 |  | CC[C@@H](C/C=N/OCCN(C)C)[C@@]1(C)CC[C@H]2[C@@H](CC[C@H]3C[C@@H](O)CC[C@@]32C)C1=O [Comp. I-bi, E-17α-2-[(2-Dimethylaminoethoxy)iminomethyl]-14,15-seco-3β-hydroxy-androstan-14-one oxalate] |  |  | 10000 | 2000

Compound | IC50 (Na^+,K^+ -ATPase [2]; [4]) [nM] | IC50 (Na^+,K^+ -ATPase [3]; [5]) [nM] | SBP (systolic blood pressure) [1] | HR (heart rate) [1] | IC50 (Na^+,K^+ -ATPase [2]) [nM] | IC50 (Na^+,K^+ -ATPase [3]) [nM]
CC[C@@H](/C=N/OCCN(C)C)[C@@]1(C)CC[C@H]2[C@@H](CC[C@@H]3C[C@@H](O)CC[C@@]32C)C1=O [Comp. I-ak, E-17β-2-[(2-Dimethylaminoethoxy)iminomethyl]-5β-14,15-seco-3β-hydroxy-androstan-14-one oxalate] | 7940 | 501 | 153 +/- 6.3 mm Hg | 380 +/- 10.0 beats/min. |  | 
